The values that follow are results of earlier work, collected in article PMC10017685 (Nature Communications, 2023).

The subject of this data set is human erythrocytes. Further details: method as in DBAASP. The note with it: toxicity class label 1 or 0, meaning of the labels not given; DBAASP HC50 data, human erythrocytes; ref DBAASP; cited from earlier work.
For FIGALLRPALKLLAGK [DBAASP_5719], the “Class (dedicated toxicity dataset used for toxicity classifier evaluation)” value (“Class” below) is listed as 0.
For the sequence KGIVGMLGKLF [DBAASP_5480], the “Class” value is reported as 0.
KQIKIWFQNKKMKWKK [DBAASP_8799]: the “Class” value was 0.
For the sequence GLKKIFKAGLGSLVKGIAAHVAS [DBAASP_4416], the “Class” value was 1.
As to WWRLRRIW [DBAASP_10632], the “Class” value is reported as 0.
For VRRFAWWWPFLRR [DBAASP_5142], the “Class” value is 0.
On to FFHHIFRGIVHVGKTIHRLVTG [DBAASP_4867], for which the “Class” value is 1.
Take VKRWKKFWRKWKKWW [DBAASP_8774]: the “Class” value is on record as 0.
For LLKKVLKAAA [DBAASP_7357], the “Class” value is 0.
Take VRRFPWYWPFLRR [DBAASP_14260]: the “Class” value is 0.
In the case of LWKIWKKIWRVGWNWR [DBAASP_17513], the “Class” value is reported as 0.
Regarding GLLKRIKKLL [DBAASP_3148], the “Class” value is given as 0.
In the case of WLRRIGKGVKIIGGAALDHL [DBAASP_5344], the “Class” value is 0.
With GLLSNVAGLLKQFAKGGVNAVLNPK [DBAASP_5717], the “Class” value is reported as 0.
GLFDVIKKVLKKIGGL [DBAASP_8592]: the “Class” value is on record as 1.
As to FFHHIFRGIVHIGKTIHRLVTG [DBAASP_9010], the “Class” value is given as 1.
Regarding GLLGLLGSVVSHVVPAIVGHF [DBAASP_2298], the “Class” value is listed as 1.
In the case of GLLRASSVWGRKYYVDLAGCAKA [DBAASP_1639], the “Class” value is 0.
As for GILKTIKSIASKLKRKAK [DBAASP_5476], the “Class” value is listed as 0.
Consider GLNALKKVFQGIHEAIKLINNHVQ [DBAASP_3355], for which the “Class” value is 0.
With GFKRIVQKIRDFLRNLV [DBAASP_11852], the “Class” value was 0.
For the sequence GRFKRFRKKFKKLFKKLS [DBAASP_628], the “Class” value is listed as 0.
Regarding CVKVRVKVGSGVKVRVKVC [DBAASP_349], the “Class” value was 0.
CVKVKVKVGSGVKVKVKVC [DBAASP_347]: the “Class” value is reported as 0.
KWKVFKKIEKMIRNIRNKIAK [DBAASP_11865]: the “Class” value was 0.
With FLPIVTNLLSGLL [DBAASP_2205], the “Class” value is 0.
With IKKIVSKIKKVLK [DBAASP_7246], the “Class” value is recorded as 0.
With FLSLIPHIVSGVASIAKHF [DBAASP_3889], the “Class” value is 0.
KIFGAIWPLALGALKNLIK [DBAASP_7010]: the “Class” value is given as 1.
FIHHIIGGLFSAGKAIHRLIRRRRR [DBAASP_5623]: the “Class” value was 1.
For GIKKWVKGVAKGVAKDLAKKIL [DBAASP_11866], the “Class” value is listed as 0.
On to RRWYRRWYRRWY [DBAASP_17315], for which the “Class” value is listed as 0.
Turning to GLMKRIKTML [DBAASP_8625], the “Class” value was 0.
Regarding WWWLKKIW [DBAASP_9820], the “Class” value is recorded as 0.
For the sequence SAVWRHWRRFWLRKHRKH [DBAASP_9988], the “Class” value was 0.
For the sequence GLLGPLLKIAKKVGSNLL [DBAASP_4923], the “Class” value was 0.
Regarding “GIGGALLSFGKSALKGLAKGLAEHF [DBAASP_12131]”, the “Class” value is 0.
For KIAKIAGKIAKIAGKIA [DBAASP_14992], the “Class” value is 0.
As for WKRRIKIWKKIR [DBAASP_10625], the “Class” value is given as 0.
Turning to KKVLKAAA [DBAASP_7362], the “Class” value is given as 0.
As for GIKDLLKGAAKALVKTVLF [DBAASP_11234], the “Class” value is given as 0.
As for GFWGKLFKLGLHGIGLLHLHL [DBAASP_999], the “Class” value is 0.
Turning to FLSLIPKAISAVSALANHF [DBAASP_12626], the “Class” value is on record as 0.
Take KLFKKLFK [DBAASP_17848]: the “Class” value is 0.
VKKFAWWWPFLKK [DBAASP_11304]: the “Class” value is 0.
For ALHKTMLKKLGTMAL [DBAASP_10090], the “Class” value is listed as 0.
As for GLNALKKVFQGIHEAIKLFNNHVQ [DBAASP_6937], the “Class” value is 0.
Consider RQIKIWFQNRRMKWKK [DBAASP_6203], for which the “Class” value is 0.
As to LWKIWKKIWRVWKNWR [DBAASP_17516], the “Class” value is listed as 1.
Take GLLKKLLKIAAKVGKKLL [DBAASP_4928]: the “Class” value is listed as 1.
Consider GIGKHVGKALKGLKGLLKGLGEC [DBAASP_6804], for which the “Class” value is reported as 0.
With GVSKILHSAGKFGKAFLGEIMKS [DBAASP_3776], the “Class” value is 0.
Consider KKKKKKKKKGGGLLALLALLA [DBAASP_13727], for which the “Class” value was 1.
As to GWLPTFGKILRKAMQLGPKLIQPI [DBAASP_5715], the “Class” value is given as 0.
In the case of GFKDLLKGAAKALVKAVLF [DBAASP_4918], the “Class” value was 1.
With HFLGTLKNLAKKIL [DBAASP_5019], the “Class” value is 0.
On to FPVTWKWWKWWKG [DBAASP_7114], for which the “Class” value was 0.
For FPVTWPTKWWKS [DBAASP_9716], the “Class” value is 0.
As to HFLGKLVNLAKKIL [DBAASP_5018], the “Class” value is given as 0.
As for GFKRIVQRIKDFLRNLV [DBAASP_6070], the “Class” value was 0.
Regarding AILTTLANWARKFL [DBAASP_3561], the “Class” value was 0.
With GIWDTIKSMGKVFAGLILQNL [DBAASP_701], the “Class” value is on record as 1.
Regarding FLPIIAGAAAKVVEKIFCAISKKC [DBAASP_4217], the “Class” value is listed as 1.
Take RWQWRWQWR [DBAASP_10099]: the “Class” value is recorded as 0.
